In patent US20230058623A1, “NOVEL HETEROARYL-TRIAZOLE COMPOUNDS AS PESTICIDES” (Bayer Aktiengesellschaft, priority 2019, published 2023):

How the values were obtained:
Format in all cases: in vivo
[1] = system: Rhipicephalus (Boophilus) microplus larvae (strain Parkhurst, resistant against synthetic pyrethroids); assay: Rhipicephalus (Boophilus) microplus in-vitro contact test, larval cattle tick; settings: after 48 hours, read-out: activity (efficacy: larvae dead or moribund); for pest or weed control at 1 µg/cm2, 100 g/ha: application rate 1 μg/cm^2 (=100 g/ha); for pest or weed control at 5 µg/cm2, 500 g/ha: application rate 5 μg/cm^2 (=500 g/ha)
Procedure: Rhipicephalus (Boophilus) microplus—In-Vitro Contact Tests Larval Cattle Tick (Strain Parkhurst, Resistant Against Synthetic Pyrethroids)
9 mg compound is solved in 1 ml acetone and diluted with acetone to the desired concentration. 250 μL of the test solution is filled in 25 mL glass test tubes and homogeneously distributed on the inner walls by rotation and tilting on a shaking device (2 h at 30 rpm). With a compound concentration of 900 ppm, an inner surface of 44.7 cm^2 and a homogeneous distribution, a dose of 5 μg/cm^2 is achieved.
After the solvent has evaporated, each test tube is filled with 20-50 cattle tick larvae (Rhipicephalus microplus), closed with a perforated lid and incubated in a horizontal position at 85% relative humidity and 27° C. in an incubator. After 48 hours efficacy is determined. The larvae are patted on the ground of the tubes and negative geotactic behavior is recorded.
An efficacy of 100% means all larvae are dead or moribund; 0% means no larvae are dead or moribund.

[2] = system: adult brown dog ticks (Rhipicephalus sanguineus); assay: Rhipicephalus sanguineus in-vitro contact test, adult brown dog ticks; settings: application rate 5 μg/cm^2 (=500 g/ha), after 48 hours, read-out: activity (efficacy: ticks dead or moribund)
Procedure: Rhipicephalus sanguineus—In-Vitro Contact Tests with Adult Brown Dog Ticks
(§1) 9 mg compound is solved in 1 mL acetone and diluted with acetone to the desired concentration. 250 μL of the test solution is filled in 25 mL glass test tubes and homogeneously distributed on the inner walls by rotation and tilting on a shaking device (2 h at 30 rpm). With a compound concentration of 900 ppm, an inner surface of 44.7 cm^2 and a homogeneous distribution, a dose of 5 μg/cm^2 is achieved.
After the solvent has evaporated, each test tube is filled with 5-10 adult brown dog ticks (Rhipicephalus sanguineus), closed with a perforated lid and incubated in a lying position at room temperature and relative humidity. After 48 hours efficacy is determined. The ticks are patted on the ground of the tubes and are incubated on a heating plate at 45-50° C. for at most 5 minutes. Immotile or uncoordinated moving ticks, which are not able to escape the heat by climbing upwards, are marked as dead or moribund.
An efficacy of 100% means all ticks are dead or moribund; 0% means no ticks are dead or moribund.

[3] = system: larvae of the banded cucumber beetle (Diabrotica balteata); assay: Diabrotica balteata spray test; settings: 168 h, application rate 100 g/ha (=32 μg/well), after 7 days, wheat seeds, read-out: activity (efficacy: seedlings grown)
Procedure: Diabrotica balteata—Spray Test
To produce a suitable preparation of active compound, 1 part by weight of active compound is mixed with the stated amount of solvent, and the concentrate is diluted with water, containing an emulsifier concentration of 1000 ppm, to the desired concentration. Further test concentrations are prepared by dilution with emulsifier containing water.
Soaked wheat seeds (Triticum aestivum) are placed in a multiple well plate filled with agar and some water and are incubated for 1 day to germinate (5 seeds per well). The germinated wheat seeds are sprayed with a test solution containing the desired concentration of the active ingredient. Afterwards each unit is infected with 10-20 larvae of the banded cucumber beetle (Diabrotica balteata).
After 7 days efficacy in % is determined. 100% means all the seedlings have grown up like in the untreated, uninfected control; 0% means none of the seedlings have grown.

[4] = system: fall armyworm larvae (Spodoptera frugiperda); assay: Spodoptera frugiperda spray test; settings: 168 h, application rate 100 g/ha, after 7 days, maize leaf sections
Procedure: Spodoptera frugiperda—Spray Test
(§2) To produce a suitable preparation of active compound, 1 part by weight of active compound is mixed with the stated amount of solvents and is diluted with water, containing an emulsifier concentration of 1000 ppm, to the desired concentration. Further test concentrations are prepared by dilution with emulsifier containing water.
Maize (Zea mays) leaf sections are sprayed with a preparation of the active ingredient of the desired concentration. Once dry, the leaf sections are infested with fall armyworm larvae (Spodoptera frugiperda).
After 7 days mortality in % is determined. 100% means all caterpillars have been killed and 0% means none of the caterpillars have been killed.

[5] = system: adult cat fleas (Ctenocephalides felis); assay: Ctenocephalides felis in-vitro contact test, adult cat flea; settings: application rate 5 μg/cm^2 (=500 g/ha), after 48 hours, read-out: activity (efficacy: fleas dead or moribund)
Procedure: Ctenocephalides felis—In-Vitro Contact Tests Adult Cat Flea
as §1
After the solvent has evaporated, each test tube is filled with 5-10 adult cat fleas (Ctenocephalides felis), closed with a perforated lid and incubated in a lying position at room temperature and relative humidity. After 48 hours efficacy is determined. The fleas are patted on the ground of the tubes and are incubated on a heating plate at 45-50° C. for at most 5 minutes. Immotile or uncoordinated moving fleas, which are not able to escape the heat by climbing upwards, are marked as dead or moribund.
An efficacy of 100% means all fleas are dead or moribund; 0% means no fleas are dead or moribund.

[6] = system: green peach aphid (Myzus persicae); assay: Myzus persicae oral test; settings: 120 h, read-out: activity (mortality)
Procedure: Solvent: 100 parts by weight acetone
To produce a suitable preparation of active compound, 1 part by weight of active compound is mixed with the stated amount of solvent, and the concentrate is diluted with water to the desired concentration.
50 μL compound solution is filled in microtiter plates and 150 μL IPL41 insect medium (33%+15% sugar) is added to obtain a total volume of 200 μL per well. Afterwards the plates are sealed with parafilm through which a mixed population of the green peach aphid (Myzus persicae) can suck on the compound preparation.
(§3) After 5 days mortality in % is determined. 100% means all aphids have been killed and 0% means none of the aphids have been killed.

[7] = system: green peach aphid (Myzus persicae); assay: Myzus persicae spray test; settings: foliar, 120 h, after 5 days, Chinese cabbage leaf disks; for mortality at 100 g/ha: application rate 100 g/ha, read-out: activity (mortality)
Procedure: Myzus persicae—Spray Test
as §2
Chinese cabbage (Brassica pekinensis) leaf disks infected with all instars of the green peach aphid (Myzus persicae), are sprayed with a preparation of the active ingredient of the desired concentration.
as §3

Row | Compound | pest or weed control at 1 µg/cm2, 100 g/ha [1] | pest or weed control at 5 µg/cm2, 500 g/ha [1] | pest or weed control at 5 µg/cm2, 500 g/ha [2] | pest or weed control at 32 µg/disc, 100 g/ha [3] | mortality at 100 g/ha [4] | pest or weed control at 5 µg/cm2 [5] | mortality at 4 ppm [6] | mortality at 500 g/ha ([7]; application rate 500 g/ha) | mortality at 100 g/ha [7]
1 | CC(NC(=O)c1cc(C(F)(F)F)cc(C(F)(F)F)c1)c1nc(Br)nn1-c1ccc(C(=O)N2CCOCC2)cn1 (racemic) [Example I-86, N-[1-[5-bromo-2-[5-(morpholine-4-carbonyl)-2-pyridyl]-1,2,4-triazol-3-yl]ethyl]-3,5-bis(trifluoromethyl)benzamide] | 100% | 100% | 80% | 100% | 83% | – | – | – | –
2 | C[C@H](NC(=O)c1cc(Cl)cc(C(F)(F)F)c1)c1ncnn1-c1ccc(N2CCOCC2)cn1 [Example I-43] | 100% | 100% | 100% | 100% | – | – | – | – | –
3 | C[C@@H]1CN(C(=O)c2ccc(-n3ncnc3[C@H](C)NC(=O)c3cc(Cl)cc(S(C)(=O)=O)c3)nc2)C[C@H](C)O1 [Example I-53] | – | – | – | – | 100% | 100% | 100% | – | –
4 | C[C@H](NC(=O)c1cc(Cl)cc(C(F)(F)F)c1)c1ncnn1-c1ccc(N2CCSCC2=O)cn1 [Example I-55] | – | – | – | – | – | 80% | 100% | – | –
5 | C[C@H](NC(=O)c1cc(OC(F)(F)F)cc(C2CC2)c1)c1ncnn1-c1ccc(N2CCOCC2=O)cn1 [Example I-58] | – | – | – | – | – | – | – | 90% | –
6 | C[C@H](NC(=O)c1cc(OC(F)(F)F)cc(C2CC2)c1)c1ncnn1-c1ccc(C(=O)N2CCOC[C@@H]2C)cn1 [Example I-66] | 100% | 100% | – | 100% | 83% | 100% | – | – | –
7 | C[C@H](NC(=O)c1cc(C(F)(F)F)cc(C(F)(F)F)c1)c1ncnn1-c1ccc(C(=O)N2CCOC[C@H]2C)cn1 [Example I-71] | 100% | 100% | 80% | 100% | 100% | 100% | 100% | – | –
8 | Cc1nc([C@H](C)NC(=O)c2cc(C(F)(F)F)cc(C(F)(F)F)c2)n(-c2ccc(C(=O)N3CCOCC3c3ncno3)cn2)n1 (stereo partly shown) [Example I-99] | 100% | 100% | 80% | – | – | 100% | 100% | – | 90%
9 | C[C@H](NC(=O)c1cc(C(F)(F)F)cc(C(F)(F)F)c1)c1ncnn1-c1ccc(C(=O)N2CCOCC2c2ccnn2C)cn1 (stereo partly shown) [Example I-100] | 90% | 90% | – | 100% | 83% | 80% | – | – | –
10 | Cc1nc([C@H](C)NC(=O)c2cc(C(F)(F)F)cc(C(F)(F)F)c2)n(-c2ccc(C(=O)N3CCOCC3c3ccnn3C)cn2)n1 (stereo partly shown) [Example I-101] | 80% | 80% | – | – | 100% | 80% | – | – | –
11 | C[C@H](NC(=O)c1cc(OC(F)(F)F)cc(C2CC2)c1)c1ncnn1-c1ccc(N2CCOCC2)cn1 [Example I-104] | 100% | 100% | – | 100% | – | 90% | – | – | 90%
12 | C[C@H](NC(=O)c1cc(C(F)(F)F)cc(C(F)(F)F)c1)c1ncnn1-c1ccc(C(=O)N(C)C2CCOCC2)cn1 [Example I-110] | 100% | 100% | – | – | 100% | 100% | 100% | – | 90%
13 | Cc1nc([C@H](C)NC(=O)c2cc(OC(F)(F)F)cc(C3CC3)c2)n(-c2ccc(C(=O)N3CCOC[C@@H]3C)cn2)n1 [Example I-129] | 100% | 100% | – | – | – | 100% | – | – | –
14 | Cc1nc([C@H](C)NC(=O)c2cc(Br)cc(OC(F)(F)F)c2)n(-c2ncc(C(=O)N3CCOCC3)s2)n1 [Example I-136] | 100% | 100% | 100% | – | 100% | – | – | – | –
15 | Cc1nc([C@H](C)NC(=O)c2cc(C(F)(F)F)cc(C(F)(F)F)c2)n(-c2ccc(C(=O)N3C[C@@H](C)O[C@@H](C)C3)nn2)n1 [Example I-139] | 100% | 100% | 100% | 100% | – | – | – | – | –
16 | C[C@@H]1CN(C(=O)c2cnc(-n3ncnc3[C@H](C)NC(=O)c3cc(OC(F)(F)F)cc(C4CC4)c3)nc2)C[C@H](C)O1 [Example I-148] | – | – | – | 100% | 100% | – | – | – | 90%
